Data set [1] deals with interferon (α). As to the kind of experiment: Cytokine Induction in Human Cells: interferon (α) by ELISA. Conditions: PBMC; human PBMCs, incubated 18 to 24 hours, lowest concentration found to induce interferon. In kind it is cell-based. The method in brief:
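Healthy-donor human PBMCs (1.5–2×10^6 cells/mL final, RPMI with 10% FBS) exposed to serially diluted compound (≤1% DMSO) for 18–24 h at 37 °C, 5% CO2. Supernatant IFN-α measured by ELISA; value reported is lowest concentration inducing interferon.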
Background: An ELISA detects its analyte on a solid surface through an enzyme-linked reagent.

The test system of data set [2] is tumor necrosis factor (α). As to the kind of experiment: Cytokine Induction in Human Cells: tumor necrosis factor (α) by ELISA. In kind it is cell-based. To be noted: PBMC; human PBMCs, incubated 18 to 24 hours, lowest concentration found to induce tumor necrosis factor. The method in brief:
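Healthy-donor PBMCs (1.5–2×10^6 cells/mL final, RPMI with 10% FBS) incubated 18–24 h at 37 °C with compound in three- or ten-fold serial dilutions, DMSO ≤1% final. Supernatant TNF measured by ELISA; value is lowest concentration inducing TNF.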

The structures appear in SMILES notation.

Usually minimal effective concentration stands for the lowest level tested that produced the effect sought. The low end stands for an effect from little substance, the high end for a need for much substance. For orientation: melting point means the temperature, or range, at which the solid turns liquid. On to `Nc1nc2ccccc2c2c1ncn2CCCCNC(=O)N1CCOCC1` [Example 5, N^4-[4-(4-Amino-1H-imidazo[4,5-c]quinolin-1-yl)butyl]-4-morpholinecarboxamide], for which the melting point lay within 177 to 179.5 °C. Moreover, in data set [1], the minimal effective concentration was 3.33 µM. For the same compound, the minimal effective concentration in data set [2] is over 30 µM.
For `COCCc1nc2c(N)nc3ccccc3c2n1CCCNC(=S)NC1CCCCC1` [Example 157, N-{3-[4-amino-2-(2-methoxyethyl)-1H-imidazo[4,5-c]quinolin-1-yl]propyl}-N′-cyclohexylthiourea], the melting point was 199 to 200 °C. Further, the minimal effective concentration in data set [1] stood at 0.37 µM. The same compound came in with a minimal effective concentration in data set [2] of 1.11 µM.
Taken in the same sequence, the figures for `CCCCNC(=O)NCCCn1c(CCCC)nc2c(N)nc3ccccc3c21` [Example 150, N-[3-(4-amino-2-butyl-1H-imidazo[4,5-c]quinolin-1-yl)propyl]-N′-butylurea] were 185.5 to 186.4 °C, 0.04 µM and 0.37 µM.
`COCCc1nc2c(N)nc3ccccc3c2n1CCCNC(=O)N1CCOCC1` [Example 163, N-{3-[4-amino-2-(2-methoxyethyl)-1H-imidazo[4,5-c]quinolin-1-yl]propyl}morpholine-4-carboxamide] displayed a melting point of 194 to 196 °C. In data set [1], this compound had a minimal effective concentration of 0.01 µM. Besides, the minimal effective concentration in data set [2] came to 0.01 µM.
Turning to `CCCc1nc2c(N)nc3ccccc3c2n1CCCCNC(=O)Nc1ccccc1` [Example 160, N-[4-(4-amino-2-propyl-1H-imidazo[4,5-c]quinolin-1-yl)butyl]-N′-phenylurea], the melting point was 182.8 to 184 °C. The minimal effective concentration in data set [1] came out at 0.12 µM. The compound further had a minimal effective concentration in data set [2] of 1.11 µM.
Taken in the same sequence, the figures for `Cc1nc2c(N)nc3ccccc3c2n1CCCCNC(=O)Nc1ccccc1` [Example 144, N-[4-(4-amino-2-methyl-1H-imidazo[4,5-c]quinolin-1-yl)butyl]-N′-phenylurea] were 171.5 to 172.5 °C, 0.04 µM and 0.37 µM.
Taken in the same sequence, the figures for `CCCCc1nc2c(N)nc3ccccc3c2n1CCCNC(=O)NC1CCCCC1` [Example 153, N-[3-(4-amino-2-butyl-1H-imidazo[4,5-c]quinolin-1-yl)propyl]-N′-cyclohexylurea] were 200 to 201 °C, 0.01 µM and 0.12 µM.
Taken in the same sequence, the figures for `CCCCc1nc2c(N)nc3ccccc3c2n1CCCNC(=S)NCCC` [Example 152, N-[3-(4-amino-2-butyl-1H-imidazo[4,5-c]quinolin-1-yl)propyl]-N′-propylthiourea] were 144.5 to 145.5 °C, 0.04 µM and 0.04 µM.
Consider `Nc1nc2ccccc2c2c1nc(CCCOc1ccccc1)n2CCCCNC(=O)N1CCOCC1` [Example 171, N-{4-[4-amino-2-(3-phenoxypropyl)-1H-imidazo[4,5-c]quinolin-1-yl]butyl}morpholine-4-carboxamide], for which the melting point was 71.5 to 72.1 °C. Further, the minimal effective concentration in data set [1] is over 30 µM. The minimal effective concentration in data set [2] is 10 µM.
The matching figures for `COCCc1nc2c(N)nc3ccccc3c2n1CCCNC(=O)OC(C)(C)C` [Example 148, tert-butyl 3-[4-amino-2-(2-methoxyethyl)-1H-imidazo[4,5-c]quinolin-1-yl]propylcarbamate]: 174.2 to 175.8 °C, 0.04 µM and 0.04 µM.
The matching figures for `CN(C(=O)NCCCCn1cnc2c(N)nc3ccccc3c21)c1ccccc1` [Example 6, N^1-[4-(4-Amino-1H-imidazo[4,5-c]quinolin-1-yl)butyl]-N-methyl-N-phenylurea]: 87 to 88 °C, 0.37 µM and over 30 µM.
Taken in the same sequence, the figures for `COCCc1nc2c(N)nc3ccccc3c2n1CCNC(=O)OC(C)(C)C` [Example 178, tert-butyl 2-[4-amino-2-(methoxyethyl)-1H-imidazo[4,5-c]quinolin-1-yl]ethylcarbamate] were 173 to 175 °C, 0.12 µM and 1.11 µM.
Regarding `Cc1nc2c(N)nc3c(c2n1CCCCNC(=O)N1CCOCC1)CCCC3` [Example 170, N-[4-(4-amino-2-methyl-6,7,8,9-tetrahydro-1H-imidazo[4,5-c]quinolin-1-yl)butyl]morpholine-4-carboxamide], the melting point is 133.6 to 134.6 °C. The compound also had a minimal effective concentration in data set [1] of 0.12 µM. This compound returned a minimal effective concentration in data set [2] of 10 µM.

Source of the values: patent US7157453B2, “Urea substituted imidazoquinolines” (3M Innovation Properties Company, priority 1999, dated 2007).
